# What was measured:
# Assay type in all cases: cell-based
# NCl-H2073 (EGFR_WT) = target: T1, NCl-H2073 (EGFR_WT) (Homo sapiens, UniProt P00533); assay: EGFR degradation assay (western blot), NCl-H2073 cells; conditions: Table 5; NCI-H2073 cells (EGFR_WT), 24 h
# T1 construct: endogenous in cells; host or cells: A431, NCI-H2073, NCI-H292
# Procedure: (§1) A431 (EGFR_WT), NCl-H2073 (EGFR_WT), NCl-H292 (EGFR_WT), BaF3_YVAM (Her2_A775insYVAM), BaF3_SVD (EGFR_D770insSVD), BaF3_ASV (EGFR_A776inASV), or BaF3_DTC (EGFR_Exon19del/T790M/C797S) cells were seeded in a 24-well plate at a density of 4×10^5 cells per well for EGFR WT cells and 8× cells per well for EGFR or Her2 mutant cells, and the plates were incubated overnight. The cells were treated with the desired compounds for 24 h. The culture medium was removed, and 100 μL of RIPA buffer (Beyotime, P0013B) containing 1% Protease Inhibitor Cocktail (Bimake, B14001), 1% Phosphatase Inhibitor Cocktail 2 (Sigma, P5726), and 1% Phosphatase Inhibitor Cocktail 3 (Sigma, P0044) were added to lyse the cells. Then, the cell lysates were transferred to 1.5 mL microcentrifuge tubes and centrifuged at 12,000 rpm and 4° C. for 30 min. The supernatants were transferred into new tubes, and the protein concentration was determined using the BCA protein quantification method. All samples were diluted to the same concentration using RIPA buffer, loading buffer was added, samples were denatured, and 15 μg of protein per lane was loaded onto a SurePAGE 4-20% Bis-Tris gel. Samples were separated via electrophoresis in MOPS running buffer at 180 V for 100 min. […] Fluorescence was detected using the Odyssey CLx Imaging System, and the data were analyzed with Empiria Studio Software and GraphPad Prism 9. […]
# BaF3_SVD = assay: Cell growth inhibition assay (CellTiter-Glo), BaF3_SVD; conditions: Table 7; BaF3_SVD cells
# Procedure: (§2) Cells were seeded in a 96-well plate (Corning 3610) with 90 μL of culture medium per well, and plates were incubated at 37° C. overnight. A 1,000× DMSO stock solution of the desired compound was prepared the following day. A compound dilution plate was prepared by diluting the stock solution 1:100 in the corresponding cell culture medium, 10 μL of the diluted compound solution was added to each 96-well plate well containing the seeded cells. Then, the cells were cultured at 37° C. for three days following compound treatment, 100 μL of CellTiter-Glo reagents (Promega G7573) was added to each well of the 96-well plate. The content of the wells was mixed by shaking continuously for 10 min, and luminescence was measured using Envision (PerkinElmer). The data were analyzed with GraphPad Prism 9 (see FIG. 50).
# (§3) Table 6, Table 7, and Table 8 list the cell growth inhibition results, where Gls0 represents the compound concentration to cause 50% cell growth inhibition in comparison with DMSO.
# NCI-H292 = assay: Cell growth inhibition assay (CellTiter-Glo), NCI-H292; conditions: Homo sapiens; Table 7; NCI-H292 cells; head prints 24 h
# Procedure: as §2, with “Then, the cells were cultured at 37° C. for three days following compound treatment, 100 μL of CellTiter-Glo reagents (Promega G7573) was added to each well of the 96-well plate.” left out
# as §3
# BaF3_YVMA = assay: Cell growth inhibition assay (CellTiter-Glo), BaF3_YVMA; conditions: Table 7; BaF3_YVMA cells; head prints 24 h
# Procedure: as §2, with “Then, the cells were cultured at 37° C. for three days following compound treatment, 100 μL of CellTiter-Glo reagents (Promega G7573) was added to each well of the 96-well plate.” left out
# as §3
# NCl-H292 (EGFR_WT) = target: T2, NCl-H292 (EGFR_WT) (Homo sapiens, UniProt P00533); assay: EGFR degradation assay (western blot), NCl-H292 cells; conditions: Table 5; NCI-H292 cells (EGFR_WT), 24 h
# T2 construct: endogenous in cells; host or cells: A431, NCI-H2073, NCI-H292
# Procedure: as §1
# [1] = target: T3, BaF3_YVAM (Her2_A775insYVAM) (Homo sapiens, UniProt P04626, INS775YVMA); assay: EGFR degradation assay (western blot), BaF3_YVAM cells; conditions: Table 5; BaF3_YVMA cells (mutant Her2), 24 h
# T3 construct: expressed in transfected cells; host or cells: Ba/F3 (engineered)
# Procedure: (§4) A431 (EGFR_WT), NCl-H2073 (EGFR_WT), NCl-H292 (EGFR_WT), BaF3_YVAM (Her2_A775insYVAM), BaF3_SVD (EGFR_D770insSVD), BaF3_ASV (EGFR_A776inASV), or BaF3_DTC (EGFR_Exon19del/T790M/C797S) cells were seeded in a 24-well plate at a density of 4×10^5 cells per well for EGFR WT cells and 8× cells per well for EGFR or Her2 mutant cells, and the plates were incubated overnight. The cells were treated with the desired compounds for 24 h. The culture medium was removed, and 100 μL of RIPA buffer (Beyotime, P0013B) containing 1% Protease Inhibitor Cocktail (Bimake, B14001), 1% Phosphatase Inhibitor Cocktail 2 (Sigma, P5726), and 1% Phosphatase Inhibitor Cocktail 3 (Sigma, P0044) were added to lyse the cells. Then, the cell lysates were transferred to 1.5 mL microcentrifuge tubes and centrifuged at 12,000 rpm and 4° C. for 30 min. The supernatants were transferred into new tubes, and the protein concentration was determined using the BCA protein quantification method. All samples were diluted to the same concentration using RIPA buffer, loading buffer was added, samples were denatured, and 15 μg of protein per lane was loaded onto a SurePAGE 4-20% Bis-Tris gel. Samples were separated via electrophoresis in MOPS running buffer at 180 V for 100 min. Then, proteins were transferred onto PVDF membranes using the MiniBlot™ Electrophoretic Transfer Cell Device (Beyotime, E6050). The membrane was blocked using block buffer (LI-COR 927-60001) to prevent non-specific binding. The membrane was incubated with primary antibodies (1:500 dilution, EGFR-CST4405, 1:2000 dilution, Tubulin-ABclonal #AC021) at 4° C. overnight. The membrane was washed three times with 1× TBST buffer for 15 min each. The membrane was incubated with secondary antibodies IRDye 680RD Goat anti-Rabbit IgG Secondary Antibody (1:2000 dilution, LI-COR 926-68071) and IRDye 800CW Goat anti-Mouse IgG Secondary Antibody (1:2000 dilution, LI-COR 926-32210). […] Fluorescence was detected using the Odyssey CLx Imaging System, and the data were analyzed with Empiria Studio Software and GraphPad Prism 9. […]
# A431 (EGFR_WT) = target: T4, A431 (EGFR_WT) (Homo sapiens, UniProt P00533); assay: EGFR degradation assay (western blot), A431 cells; conditions: Table 5, 24 h, read-out: DC50 (nM), 24 h, A431
# T4 construct: endogenous in cells; host or cells: A431, NCI-H2073, NCI-H292
# Procedure, shortened: (§5)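 Cells seeded overnight, then exposed to compounds for 24 h; lysates run on western blot, EGFR probed with tubulin loading control and fluorescent secondary detection. DC50 = concentration giving 50% EGFR degradation.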
# [2] = target: T5, BaF3_SVD (EGFR_D770insSVD) (Homo sapiens, UniProt P00533, INS770SVD); assay: EGFR degradation assay (western blot), BaF3_SVD cells; conditions: Table 5; BaF3_SVD cells, 24 h
# T5 construct: expressed in transfected cells; host or cells: Ba/F3 (engineered)
# Procedure: as §4
# BaF3_ASV = assay: Cell growth inhibition assay (CellTiter-Glo), BaF3_ASV; conditions: Table 7; BaF3_ASV cells; head prints 24 h; read-out: GI50 (nM), 24 h, BaF3_ASV
# [3] = tested on: BaF3_DTC (EGFR_Exon19del/T790M/C797S); assay: EGFR degradation assay (western blot), BaF3_DTC cells; conditions: Table 5; BaF3_Del19/T790M/C797S cells, 24 h; read-out: DC50 (nM), 24 h, BaF3_Del19/T790M/C797S
# Procedure, shortened: as §5
# [4] = target: T6, BaF3_ASV (EGFR_A776inASV) (Homo sapiens, UniProt P00533, DUP767-769); assay: EGFR degradation assay (western blot), BaF3_ASV cells; conditions: Table 5; BaF3_ASV cells, 24 h; read-out: DC50 (nM), 24 h, BaF3_ASV
# T6 construct: expressed in transfected cells; host or cells: Ba/F3 (engineered)
# Procedure, shortened: as §5
# BaF3_DTC = assay: Cell growth inhibition assay (CellTiter-Glo), BaF3_DTC; conditions: Table 7; BaF3_Del19/T790M/C797S cells; head prints 24 h; read-out: GI50 (nM), 24 h, BaF3_Del19/T790M/C797S
# A431 = assay: Cell growth inhibition assay (CellTiter-Glo), A431; conditions: Homo sapiens, A-431, 24 h, Table 7; A431 cells; head prints 24 h; read-out: GI50 (nM), 24 h, A431
# Procedure, shortened: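 This growth inhibition assay reports GI50, the compound concentration producing 50% inhibition of cell growth relative to DMSO. Seeded cells (90 μL medium per well, 96-well Corning 3610 plates, overnight at 37° C.) received 10 μL of compound diluted 1:100 from a 1,000× DMSO stock. Luminescence was measured on Envision (PerkinElmer) and analyzed in GraphPad Prism 9.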
# T5 sequence (P00533 with tags, fused parts or gaps INS770SVD): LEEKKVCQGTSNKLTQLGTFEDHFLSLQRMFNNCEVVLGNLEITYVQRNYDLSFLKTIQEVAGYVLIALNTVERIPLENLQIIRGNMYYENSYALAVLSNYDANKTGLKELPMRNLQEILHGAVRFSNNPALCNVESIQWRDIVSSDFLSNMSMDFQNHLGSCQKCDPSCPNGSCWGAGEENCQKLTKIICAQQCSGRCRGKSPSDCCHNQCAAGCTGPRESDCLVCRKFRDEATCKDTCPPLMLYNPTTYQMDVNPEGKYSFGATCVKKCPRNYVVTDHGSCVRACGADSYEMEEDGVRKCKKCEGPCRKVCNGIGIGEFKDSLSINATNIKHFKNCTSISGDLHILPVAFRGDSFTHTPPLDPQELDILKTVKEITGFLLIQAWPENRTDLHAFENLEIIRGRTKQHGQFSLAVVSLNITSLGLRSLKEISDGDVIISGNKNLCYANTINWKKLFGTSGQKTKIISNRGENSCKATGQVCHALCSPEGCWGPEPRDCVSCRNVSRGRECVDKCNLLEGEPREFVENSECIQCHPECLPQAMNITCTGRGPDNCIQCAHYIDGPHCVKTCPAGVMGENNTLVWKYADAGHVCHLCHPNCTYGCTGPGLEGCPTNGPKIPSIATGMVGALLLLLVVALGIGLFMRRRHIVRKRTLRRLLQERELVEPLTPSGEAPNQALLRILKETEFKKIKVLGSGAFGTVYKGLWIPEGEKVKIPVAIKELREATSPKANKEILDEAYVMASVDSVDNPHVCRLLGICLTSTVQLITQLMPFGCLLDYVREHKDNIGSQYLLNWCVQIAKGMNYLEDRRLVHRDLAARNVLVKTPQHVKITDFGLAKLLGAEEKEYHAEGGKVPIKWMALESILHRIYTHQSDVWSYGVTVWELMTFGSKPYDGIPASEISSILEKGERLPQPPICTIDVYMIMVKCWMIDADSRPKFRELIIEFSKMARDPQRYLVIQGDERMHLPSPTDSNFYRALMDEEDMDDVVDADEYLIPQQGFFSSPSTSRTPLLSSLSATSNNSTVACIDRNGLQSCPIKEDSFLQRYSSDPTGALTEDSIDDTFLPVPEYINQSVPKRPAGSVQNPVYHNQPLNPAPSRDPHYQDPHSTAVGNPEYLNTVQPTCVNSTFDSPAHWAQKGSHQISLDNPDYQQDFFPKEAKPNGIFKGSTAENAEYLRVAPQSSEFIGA
# T1 sequence (P00533 25-1210): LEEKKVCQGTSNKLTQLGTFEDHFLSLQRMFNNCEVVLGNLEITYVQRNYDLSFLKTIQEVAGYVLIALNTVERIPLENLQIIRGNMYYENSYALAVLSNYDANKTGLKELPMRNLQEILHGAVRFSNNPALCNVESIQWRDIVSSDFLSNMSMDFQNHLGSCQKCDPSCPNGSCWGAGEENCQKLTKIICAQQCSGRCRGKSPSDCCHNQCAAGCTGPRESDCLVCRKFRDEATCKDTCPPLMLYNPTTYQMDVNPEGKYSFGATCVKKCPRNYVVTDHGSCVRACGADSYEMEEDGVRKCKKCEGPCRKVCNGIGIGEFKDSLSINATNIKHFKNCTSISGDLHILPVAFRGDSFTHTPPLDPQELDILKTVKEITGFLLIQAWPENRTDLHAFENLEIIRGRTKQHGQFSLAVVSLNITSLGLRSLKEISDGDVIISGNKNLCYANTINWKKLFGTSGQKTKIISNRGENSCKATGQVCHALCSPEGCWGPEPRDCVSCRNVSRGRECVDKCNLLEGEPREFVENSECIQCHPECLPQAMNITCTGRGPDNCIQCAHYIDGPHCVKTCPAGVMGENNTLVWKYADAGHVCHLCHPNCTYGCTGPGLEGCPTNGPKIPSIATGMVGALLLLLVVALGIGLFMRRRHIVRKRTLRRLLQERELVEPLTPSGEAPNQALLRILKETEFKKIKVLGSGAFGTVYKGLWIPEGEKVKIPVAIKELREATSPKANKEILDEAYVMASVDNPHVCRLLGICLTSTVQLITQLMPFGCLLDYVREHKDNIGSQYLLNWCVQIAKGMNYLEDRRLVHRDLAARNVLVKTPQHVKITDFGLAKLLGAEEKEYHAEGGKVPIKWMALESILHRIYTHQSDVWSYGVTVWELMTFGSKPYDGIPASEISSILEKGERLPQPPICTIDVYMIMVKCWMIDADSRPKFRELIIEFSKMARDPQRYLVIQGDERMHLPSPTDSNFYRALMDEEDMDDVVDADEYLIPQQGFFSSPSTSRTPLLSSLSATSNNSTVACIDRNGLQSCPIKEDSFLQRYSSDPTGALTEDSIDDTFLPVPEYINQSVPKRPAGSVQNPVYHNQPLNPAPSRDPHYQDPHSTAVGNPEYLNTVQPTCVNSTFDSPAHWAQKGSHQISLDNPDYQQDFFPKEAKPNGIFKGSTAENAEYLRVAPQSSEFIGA
# T4 sequence (P00533 25-1210): as above
# T2 sequence (P00533 25-1210): as above
structure (smiles),measurement,setting,value
"CCc1cc(Nc2ncc(Br)c(Nc3cnc4ccccc4c3P(C)(C)=O)n2)c(OC)cc1N1CCC(N2CCN(CCc3cccc4c3n(CC)c(=O)n4C3CCC(=O)NC3=O)CC2)CC1 (stereo not shown) [Compound A, reference compound]",DC50,NCl-H2073 (EGFR_WT),> 1000 nM
same,GI50,BaF3_SVD,2340 nM
same,GI50,NCI-H292,> 3000 nM
same,GI50,BaF3_YVMA,2630 nM
same,DC50,NCl-H292 (EGFR_WT),> 1000 nM
same,DC50,[1],> 1000 nM
same,DC50,A431 (EGFR_WT),> 1000 nM
same,DC50,[2],280 nM
same,GI50,BaF3_ASV,824 nM
same,DC50,[3],0.622 nM
same,DC50,[4],109 nM
same,GI50,BaF3_DTC,8.57 nM
same,GI50,A431,> 3000 nM

# Source: US20250002473A1, “QUINOXALINE DERIVED SULFONAMIDES WITH EGFR DEGRADATION ACTIVITIES AND THEIR USES THEREOF” (Accutar Biotechnology Inc., priority 2023, published 2025)
